Data published in the OligoGym collection.
HELM strings list units from the 5' end as sugar, base in round brackets, then linkage (d deoxyribose, r ribose, m 2'-O-methyl, p phosphodiester). Strings are as the collection lists them; they lack the last nucleoside at the 3' end of the tested compound. [moe] = 2'-O-(2-methoxyethyl) (MOE); [sp] = phosphorothioate linkage; [m5C] = 5-methylcytosine

Target: ATXN2
Test: mouse, dose not given
Conditions: ASO

Substance	3 h FOB score
RNA1{[moe](T)[sp].[moe](T)p.[moe](A)p.[moe]([m5C])p.[moe](T)p.d(G)[sp].d(T)[sp].d(T)[sp].d(T)[sp].d([m5C])[sp].d(G)[sp].d(A)[sp].d([m5C])[sp].d([m5C])[sp].d(T)[sp].[moe]([m5C])p.[moe](T)p.[moe](G)[sp].[moe](A)}$$$$ (last 3' nucleoside missing)	4.5 score 0-7
RNA1{[moe](T)[sp].[moe](T)p.[moe](A)p.[moe]([m5C])p.[moe](T)p.d(T)[sp].d([m5C])[sp].d(T)[sp].d(T)[sp].d(T)[sp].d(T)[sp].d(G)[sp].d([m5C])[sp].d(T)[sp].d(A)[sp].[moe](G)p.[moe]([m5C])p.[moe](T)[sp].[moe](G)}$$$$ (last 3' nucleoside missing)	1 score 0-7
RNA1{[moe](T)[sp].[moe](T)p.[moe](G)p.[moe](A)p.[moe](A)p.d(T)[sp].d(T)[sp].d(A)[sp].d([m5C])[sp].d(A)[sp].d(A)[sp].d(T)[sp].d(G)[sp].d([m5C])[sp].d(G)[sp].[moe](G)p.[moe](T)p.[moe](A)[sp].[moe](T)}$$$$ (last 3' nucleoside missing)	4 score 0-7
RNA1{[moe](T)[sp].[moe](T)p.[moe](G)p.[moe](T)p.[moe](A)p.d([m5C])[sp].d(T)[sp].d(T)[sp].d([m5C])[sp].d(A)[sp].d([m5C])[sp].d(A)[sp].d(T)[sp].d(T)[sp].d(T)[sp].[moe](G)p.[moe](G)p.[moe](A)[sp].[moe](G)}$$$$ (last 3' nucleoside missing)	3.75 score 0-7
RNA1{[moe](T)[sp].[moe](T)p.[moe](G)p.[moe](T)p.[moe](T)p.d(A)[sp].d([m5C])[sp].d(T)[sp].d(G)[sp].d(T)[sp].d(T)[sp].d(T)[sp].d([m5C])[sp].d(G)[sp].d(A)[sp].[moe]([m5C])p.[moe]([m5C])p.[moe](T)[sp].[moe]([m5C])}$$$$ (last 3' nucleoside missing)	4.25 score 0-7
RNA1{[moe](T)[sp].[moe](T)p.[moe](G)p.[moe](T)p.[moe](T)p.d([m5C])[sp].d(T)[sp].d(T)[sp].d([m5C])[sp].d([m5C])[sp].d(A)[sp].d(A)[sp].d(T)[sp].d(T)[sp].d(T)[sp].[moe]([m5C])p.[moe](A)p.[moe](G)[sp].[moe](A)}$$$$ (last 3' nucleoside missing)	0 score 0-7
RNA1{[moe](T)[sp].[moe](T)p.[moe](G)p.[moe]([m5C])p.[moe](A)p.d([m5C])[sp].d(A)[sp].d(T)[sp].d(A)[sp].d(G)[sp].d(G)[sp].d(T)[sp].d(T)[sp].d(A)[sp].d(G)[sp].[moe](A)p.[moe](A)p.[moe](T)[sp].[moe](T)}$$$$ (last 3' nucleoside missing)	6.5 score 0-7
RNA1{[moe](T)[sp].[moe](T)p.[moe](T)p.[moe](G)p.[moe](A)p.d(A)[sp].d(T)[sp].d(T)[sp].d(A)[sp].d([m5C])[sp].d(A)[sp].d(A)[sp].d(T)[sp].d(G)[sp].d([m5C])[sp].[moe](G)p.[moe](G)p.[moe](T)[sp].[moe](A)}$$$$ (last 3' nucleoside missing)	3.5 score 0-7
RNA1{[moe](T)[sp].[moe](T)p.[moe](T)p.[moe](G)p.[moe](T)p.d(T)[sp].d(A)[sp].d([m5C])[sp].d(T)[sp].d(G)[sp].d(T)[sp].d(T)[sp].d(T)[sp].d([m5C])[sp].d(G)[sp].[moe](A)p.[moe]([m5C])p.[moe]([m5C])[sp].[moe](T)}$$$$ (last 3' nucleoside missing)	5 score 0-7
RNA1{[moe](T)[sp].[moe](T)p.[moe](T)p.[moe](G)p.[moe]([m5C])p.d(T)[sp].d(T)[sp].d(A)[sp].d(T)[sp].d(T)[sp].d(A)[sp].d(T)[sp].d(T)[sp].d([m5C])[sp].d(T)[sp].[moe]([m5C])p.[moe](A)p.[moe]([m5C])[sp].[moe](A)}$$$$ (last 3' nucleoside missing)	0 score 0-7
RNA1{[moe](T)[sp].[moe](T)p.[moe](T)p.[moe](T)p.[moe](G)p.d(A)[sp].d(A)[sp].d(T)[sp].d(T)[sp].d(A)[sp].d([m5C])[sp].d(A)[sp].d(A)[sp].d(T)[sp].d(G)[sp].[moe]([m5C])p.[moe](G)p.[moe](G)[sp].[moe](T)}$$$$ (last 3' nucleoside missing)	2 score 0-7
RNA1{[moe](T)[sp].[moe](T)p.[moe](T)p.[moe](T)p.[moe](G)p.d([m5C])[sp].d(T)[sp].d(T)[sp].d(A)[sp].d(T)[sp].d(T)[sp].d(A)[sp].d(T)[sp].d(T)[sp].d([m5C])[sp].[moe](T)p.[moe]([m5C])p.[moe](A)[sp].[moe]([m5C])}$$$$ (last 3' nucleoside missing)	0 score 0-7
RNA1{[moe](T)[sp].[moe](T)p.[moe](T)p.[moe](T)p.[moe](T)p.d(G)[sp].d([m5C])[sp].d(T)[sp].d(T)[sp].d(A)[sp].d(T)[sp].d(T)[sp].d(A)[sp].d(T)[sp].d(T)[sp].[moe]([m5C])p.[moe](T)p.[moe]([m5C])[sp].[moe](A)}$$$$ (last 3' nucleoside missing)	0 score 0-7
RNA1{[moe](T)[sp].[moe](T)p.[moe](T)p.[moe](T)p.[moe]([m5C])[sp].d(T)[sp].d([m5C])[sp].d(A)[sp].d(T)[sp].d(G)[sp].d(T)[sp].d(G)[sp].d([m5C])[sp].[moe](G)p.[moe](G)p.[moe]([m5C])[sp].[moe](A)}$$$$ (last 3' nucleoside missing)	5.5 score 0-7
RNA1{[moe](T)[sp].[moe](T)p.[moe](T)p.[moe](T)p.[moe]([m5C])p.d(T)[sp].d([m5C])[sp].d(A)[sp].d(T)[sp].d(G)[sp].d(T)[sp].d(G)[sp].d([m5C])[sp].d(G)[sp].d(G)[sp].[moe]([m5C])p.[moe](A)p.[moe](T)[sp].[moe]([m5C])}$$$$ (last 3' nucleoside missing)	5 score 0-7
RNA1{[moe](T)[sp].[moe](T)p.[moe](T)p.[moe]([m5C])p.[moe](T)p.d([m5C])[sp].d(A)[sp].d(T)[sp].d(G)[sp].d(T)[sp].d(G)[sp].d([m5C])[sp].d(G)[sp].d(G)[sp].d([m5C])[sp].[moe](A)p.[moe](T)p.[moe]([m5C])[sp].[moe](A)}$$$$ (last 3' nucleoside missing)	6 score 0-7
RNA1{[moe](T)[sp].[moe](T)p.[moe]([m5C])p.[moe](T)[sp].[moe]([m5C])[sp].d(T)[sp].d(A)[sp].d(T)[sp].d(T)[sp].d(T)[sp].d([m5C])[sp].d(T)[sp].d(T)[sp].d(T)[sp].d(G)[sp].[moe](T)p.[moe]([m5C])p.[moe]([m5C])[sp].[moe](A)}$$$$ (last 3' nucleoside missing)	4 score 0-7
RNA1{[moe](T)[sp].[moe](T)p.[moe]([m5C])p.[moe](T)p.[moe](G)[sp].d(T)[sp].d(A)[sp].d([m5C])[sp].d(T)[sp].d(T)[sp].d(T)[sp].d(T)[sp].d([m5C])[sp].[moe](T)p.[moe]([m5C])p.[moe](A)[sp].[moe](T)}$$$$ (last 3' nucleoside missing)	2.5 score 0-7
RNA1{[moe](T)[sp].[moe](T)p.[moe]([m5C])p.[moe](T)p.[moe](G)[sp].d([m5C])[sp].d(T)[sp].d(A)[sp].d(A)[sp].d([m5C])[sp].d(T)[sp].d(G)[sp].d(G)[sp].[moe](T)p.[moe](T)p.[moe](T)[sp].[moe](G)}$$$$ (last 3' nucleoside missing)	1.75 score 0-7
